Read-outs that look alike come from different tables or passages of the source.
How the values were obtained:
RAF kinases = RAF kinases (Homo sapiens (Human), UniProt P04049); conditions: read-out: RAF1 Kd, class symbols
[1] = test system: panel of 290 distinct kinases (321 in the larger panel), excluding mutant variants; conditions: kinase selectivity score, class symbols
mutant BRAF kinase = mutant BRAF kinase (Homo sapiens (Human), UniProt P15056, V600E); conditions: read-out: BRAF V600E Kd, class symbols
mutant BRAF kinase, sequence (P15056 whole entry V600E): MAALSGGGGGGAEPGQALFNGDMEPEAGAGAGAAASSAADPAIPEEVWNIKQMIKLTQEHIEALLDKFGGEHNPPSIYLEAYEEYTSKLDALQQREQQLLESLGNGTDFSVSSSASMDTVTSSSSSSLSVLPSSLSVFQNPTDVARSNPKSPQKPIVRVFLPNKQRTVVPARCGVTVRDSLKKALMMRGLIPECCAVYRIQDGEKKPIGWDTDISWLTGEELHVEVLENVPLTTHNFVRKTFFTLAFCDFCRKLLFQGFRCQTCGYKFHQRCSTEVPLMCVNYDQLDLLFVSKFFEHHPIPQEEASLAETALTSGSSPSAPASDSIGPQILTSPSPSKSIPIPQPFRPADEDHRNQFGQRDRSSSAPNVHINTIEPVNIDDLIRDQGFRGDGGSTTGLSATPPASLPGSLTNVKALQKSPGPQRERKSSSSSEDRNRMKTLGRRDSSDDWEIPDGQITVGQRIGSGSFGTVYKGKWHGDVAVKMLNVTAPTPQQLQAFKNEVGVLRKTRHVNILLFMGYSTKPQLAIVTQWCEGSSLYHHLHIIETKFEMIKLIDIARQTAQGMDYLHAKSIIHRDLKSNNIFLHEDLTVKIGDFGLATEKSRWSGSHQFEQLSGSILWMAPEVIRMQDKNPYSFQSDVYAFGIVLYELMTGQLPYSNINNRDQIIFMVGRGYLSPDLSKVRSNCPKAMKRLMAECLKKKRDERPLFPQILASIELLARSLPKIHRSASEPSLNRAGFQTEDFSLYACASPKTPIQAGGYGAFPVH

wild type BRAF kinase = wild type BRAF kinase (Homo sapiens (Human), UniProt P15056); conditions: read-out: BRAF WT Kd, class symbols
wild type BRAF kinase, sequence (P15056 whole entry): as the sequence (P15056 whole entry V600E) above, with E600V counted along it

[2] = value marked * (larger kinase panel)

RAF kinases, sequence (P04049 whole entry): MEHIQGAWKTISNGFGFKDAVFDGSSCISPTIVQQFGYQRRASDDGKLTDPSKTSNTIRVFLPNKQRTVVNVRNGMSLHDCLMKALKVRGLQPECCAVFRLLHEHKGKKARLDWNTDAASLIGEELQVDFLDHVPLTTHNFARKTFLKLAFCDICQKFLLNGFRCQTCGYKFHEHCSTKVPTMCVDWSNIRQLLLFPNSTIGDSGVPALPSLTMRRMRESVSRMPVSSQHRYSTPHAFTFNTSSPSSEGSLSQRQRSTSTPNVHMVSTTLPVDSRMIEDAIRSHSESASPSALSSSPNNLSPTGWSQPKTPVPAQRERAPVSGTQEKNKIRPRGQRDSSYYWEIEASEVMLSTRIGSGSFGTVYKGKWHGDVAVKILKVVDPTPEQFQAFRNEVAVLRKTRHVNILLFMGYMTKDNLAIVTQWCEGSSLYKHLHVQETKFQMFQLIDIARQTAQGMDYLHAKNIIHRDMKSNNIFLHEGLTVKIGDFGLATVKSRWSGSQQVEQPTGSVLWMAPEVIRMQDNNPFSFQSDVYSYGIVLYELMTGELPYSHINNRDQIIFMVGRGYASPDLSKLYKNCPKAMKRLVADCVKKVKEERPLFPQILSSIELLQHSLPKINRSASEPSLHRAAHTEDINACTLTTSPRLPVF

Compound | Kd (RAF kinases) [nM] | S35 ([1]; 290 distinct kinases) | Kd (mutant BRAF kinase) [nM] | Kd (wild type BRAF kinase) [nM] | S35 [1, 2]
COc1cc2ncnc(Oc3cccc(NC(=O)Nc4cc(C(C)(C)C)on4)c3)c2cc1OCCCN1CCOCC1 [Ex 22, 1-(5-tert-butylisoxazol-3-yl)-3-(3-(7-methoxy-6-(3-morpholinopropoxy)quinazolin-4-yloxy)phenyl)urea] | < 250 | D (D > 0.40) | < 250 | < 250 | 
COc1cc2ncnc(Sc3cccc(NC(=O)Nc4cc(C(C)(C)C)on4)c3)c2cc1OCCCS(C)(=O)=O [Ex 64, 1-(5-tert-butylisoxazol-3-yl)-3-(3-(7-methoxy-6-(3-(methylsulfonyl)propoxy)quinazolin-4-ylthio)phenyl)urea] | < 250 | C (0.20 < C ≦ 0.40) | < 250 | < 250 | 
COc1cc2ncnc(Sc3cccc(NC(=O)Nc4cc(C(C)(C)C)on4)c3)c2cc1OCCN1CCS(=O)(=O)CC1 [Ex 71, 1-(5-tert-butyl-isoxazol-3-yl)-3-(3-{6-[2-(1,1-dioxo-thiomorpholin-4-yl)-ethoxy]-7-methoxy-quinazolin-4-ylsulfanyl}-phenyl)-urea] | < 250 | C (0.20 < C ≦ 0.40) | < 250 | < 250 | 
COc1cc2ncnc(Sc3cccc(NC(=O)Nc4cc(C(C)(C)C)on4)c3)c2cc1OCCS(C)(=O)=O [Ex 88, 1-(5-tert-butylisoxazol-3-yl)-3-(3-(7-methoxy-6-(2-(methylsulfonyl)ethoxy)quinazolin-4-ylthio)phenyl)urea] | < 250 | C (0.20 < C ≦ 0.40) | < 250 | < 250 | 
COc1cc2nc(Cl)nc(Sc3cccc(NC(=O)Nc4cc(C(C)(C)C)on4)c3)c2cc1OC [Ex 89, 1-(5-tert-butylisoxazol-3-yl)-3-(3-(2-chloro-6,7-dimethoxyquinazolin-4-ylthio)phenyl)urea] | > 1000 | A (A ≦ 0.10) | > 1000 | > 1000 | 
COc1cc2c(Oc3cccc(NC(=O)Nc4cc(C(C)(C)C)on4)c3)ncnc2cc1OC[C@H](O)CN1CCN(C)CC1 [Ex 100, (R)-1-(5-tert-butylisoxazol-3-yl)-3-(3-(7-(2-hydroxy-3-(4-methylpiperazin-1-yl)propoxy)-6-methoxyquinazolin-4-yloxy)phenyl)urea] | < 250 | D (D > 0.40) | < 250 | < 250 | 
COc1cc2c(Oc3cccc(NC(=O)Nc4cc(C(C)(C)C)on4)c3)ncnc2cc1O[C@H]1CCN(CC(F)(F)F)C1 [Ex 104, (S)-1-(5-tert-butylisoxazol-3-yl)-3-(3-{6-methoxy-7-[1-(2,2,2-trifluoroethyl)pyrrolidin-3-yloxy]quinazolin-4-yloxy}phenyl)urea] | > 1000 |  | > 1000 | > 1000 | B* (0.10 < B ≦ 0.20)
COc1cc2c(Oc3cccc(NC(=O)Nc4cc(C(C)(C)C)on4)c3)ncnc2cc1OC1CCN(CC(F)F)CC1 [Ex 105, 1-(5-tert-butylisoxazol-3-yl)-3-(3-{7-[1-(2,2-difluoroethyl)piperidin-4-yloxy]-6-methoxyquinazolin-4-yloxy}phenyl)urea] | > 1000 |  | > 1000 | > 1000 | C* (0.20 < C ≦ 0.40)
COc1cc2ncnc(Oc3cccc(NC(=O)Nc4cc(C(C)C)no4)c3)c2cc1OC [Ex 122, 1-(3-(6,7-dimethoxyquinazolin-4-yloxy)phenyl)-3-(3-isopropylisoxazol-5-yl)urea] | < 250 | C (0.20 < C ≦ 0.40) | < 250 | < 250 | 
COCC(C)(C)c1cc(NC(=O)Nc2cccc(Oc3ncnc4cc(OC)c(OC)cc34)c2)no1 [Ex 130, 1-(3-(6,7-dimethoxyquinazolin-4-yloxy)phenyl)-3-(5-(1-methoxy-2-methylpropan-2-yl)isoxazol-3-yl)urea] | > 1000 | C (0.20 < C ≦ 0.40) |  | > 1000 | 
COCCOc1cc(NC(=O)Nc2cccc(Sc3ncnc4cc(OC)c(OC)cc34)c2)ccc1C(F)(F)F [Ex 148, 1-(3-(6,7-dimethoxyquinazolin-4-ylthio)phenyl)-3-(3-(2-methoxyethoxy)-4-(trifluoromethyl)phenyl)urea] | > 1000 |  |  | > 1000 | B* (0.10 < B ≦ 0.20)
COc1cc2ncnc(Oc3cccc(NC(=O)Nc4cc(C(=O)N5CCOCC5)cc(C(F)(F)F)c4)c3)c2cc1OC [Ex 149, 1-(3-(6,7-dimethoxyquinazolin-4-yloxy)phenyl)-3-(3-(morpholine-4-carbonyl)-5-(trifluoromethyl)phenyl)urea] | > 1000 |  |  | > 1000 | B* (0.10 < B ≦ 0.20)
COc1cc2ncnc(Oc3cccc(NC(=O)Nc4cc(C(C)(C)C)nn4-c4ccccc4)c3)c2cc1OC [Ex 153, 1-(3-tert-butyl-1-phenyl-1H-pyrazol-5-yl)-3-(3-(6,7-dimethoxyquinazolin-4-yloxy)phenyl)urea] | > 1000 |  |  | > 1000 | D* (D > 0.40)
COc1cc2ncnc(Oc3cccc(NC(=O)Nc4cc(C5(C(F)(F)F)CCC5)no4)c3)c2cc1OC [Ex 155, 1-(3-(6,7-dimethoxyquinazolin-4-yloxy)phenyl)-3-(3-(1-(trifluoromethyl)cyclobutyl)isoxazol-5-yl)urea] | > 1000 |  |  | > 1000 | C* (0.20 < C ≦ 0.40)
COc1cc2ncnc(Sc3cccc(NC(=O)Nc4cc(C5(C(F)(F)F)CCC5)no4)c3)c2cc1OC [Ex 156, 1-(3-(6,7-dimethoxyquinazolin-4-ylthio)phenyl)-3-(3-(1-(trifluoromethyl)cyclobutyl)isoxazol-5-yl)urea] | > 1000 |  |  | > 1000 | C* (0.20 < C ≦ 0.40)
COc1cc2ncnc(Oc3cccc(NC(=O)Nc4cc(C(F)(F)F)nn4-c4ccccc4)c3)c2cc1OC [Ex 161, 1-[3-(6,7-dimethoxyquinazolin-4-yloxy)phenyl]-3-[1-phenyl-3-(trifluoromethyl)-1H-pyrazol-5-yl]urea] | > 1000 |  |  | > 1000 | C* (0.20 < C ≦ 0.40)
CCOC(=O)Cn1nc(C(C)(C)C)cc1NC(=O)Nc1cccc(Oc2ncnc3cc(OC)c(OC)cc23)c1 [Ex 166, ethyl 2-(3-tert-butyl-5-{3-[3-(6,7-dimethoxyquinazolin-4-yloxy)phenyl]ureido}-1H-pyrazol-1-yl)acetate] | > 1000 |  |  | > 1000 | C* (0.20 < C ≦ 0.40)
CCOC(C)(C)c1cc(NC(=O)Nc2cccc(Oc3ncnc4cc(OC)c(OC)cc34)c2)n(-c2ccccc2)n1 [Ex 168, 1-[3-(6,7-dimethoxyquinazolin-4-yloxy)phenyl]-3-[3-(2-ethoxypropan-2-yl)-1-phenyl-1H-pyrazol-5-yl]urea] | > 1000 |  |  | > 1000 | C* (0.20 < C ≦ 0.40)
COc1cc2ncnc(Oc3cccc(NC(=O)Nc4cc(C(F)(F)F)nn4-c4ccc(F)cc4)c3)c2cc1OC [Ex 171, 1-[3-(6,7-dimethoxyquinazolin-4-yloxy)phenyl]-3-[1-(4-fluorophenyl)-3-(trifluoromethyl)-1H-pyrazol-5-yl]urea] | > 1000 |  |  | > 1000 | C* (0.20 < C ≦ 0.40)
COc1cc2ncnc(Oc3cccc(NC(=O)Nc4cc(C(F)(F)F)nn4-c4ccc(C)cc4)c3)c2cc1OC [Ex 172, 1-[3-(6,7-dimethoxyquinazolin-4-yloxy)phenyl]-3-[1-p-tolyl-3-(trifluoromethyl)-1H-pyrazol-5-yl]urea] | > 1000 |  |  | > 1000 | C* (0.20 < C ≦ 0.40)
COc1cc2ncnc(Oc3cccc(NC(=O)Nc4ccccc4)c3)c2cc1OC [Ex 182, 1-(3-(6,7-dimethoxyquinazolin-4-yloxy)phenyl)-3-phenylurea] | > 1000 |  | > 1000 | > 1000 | 
COc1cc2ncnc(Sc3cccc(NC(=O)Nc4ccc(Cl)c(C(F)(F)F)c4)c3)c2cc1OC [Ex 186, 1-(4-chloro-3-(trifluoromethyl)phenyl)-3-(3-(6,7-dimethoxyquinazolin-4-ylthio)phenyl)urea] | > 1000 |  |  | > 1000 | B* (0.10 < B ≦ 0.20)
COc1cc2ncnc(Sc3cccc(NC(=O)Nc4ccc(C(F)(F)F)c(OC)c4)c3)c2cc1OC [Ex 190, 1-(3-(6,7-dimethoxyquinazolin-4-ylthio)phenyl)-3-(3-methoxy-4-(trifluoromethyl)phenyl)urea] | > 1000 |  |  | > 1000 | B* (0.10 < B ≦ 0.20)
COc1cc2ncnc(Sc3cccc(NC(=O)Nc4cc(C(F)(F)F)nn4-c4ccccc4)c3)c2cc1OC [Ex 192, 1-[3-(6,7-dimethoxyquinazolin-4-ylthio)phenyl]-3-[1-phenyl-3-(trifluoromethyl)-1H-pyrazol-5-yl]urea] | > 1000 |  |  | > 1000 | C* (0.20 < C ≦ 0.40)
CCOC(=O)Cn1nc(C(C)(C)C)cc1NC(=O)Nc1cccc(Sc2ncnc3cc(OC)c(OC)cc23)c1 [Ex 195, ethyl 2-(3-tert-butyl-5-{3-[3-(6,7-dimethoxyquinazolin-4-ylthio)phenyl]ureido}-1H-pyrazol-1-yl)acetate] | > 1000 |  |  | > 1000 | C* (0.20 < C ≦ 0.40)
COc1cc2ncnc(Sc3cccc(NC(=O)Nc4cc(C(F)(F)F)nn4-c4ccc(F)cc4)c3)c2cc1OC [Ex 198, 1-[3-(6,7-dimethoxyquinazolin-4-ylthio)phenyl]-3-[1-(4-fluorophenyl)-3-(trifluoromethyl)-1H-pyrazol-5-yl]urea] | > 1000 |  |  | > 1000 | C* (0.20 < C ≦ 0.40)
COCCOc1cc2ncnc(Oc3cccc(NC(=O)Nc4cc(C(=O)N5CCOCC5)cc(C(F)(F)F)c4)c3)c2cc1OC [Ex 205, 1-(3-(6-methoxy-7-(2-methoxyethoxy)quinazolin-4-yloxy)phenyl)-3-(3-(morpholine-4-carbonyl)-5-(trifluoromethyl)phenyl)urea] | > 1000 |  |  | > 1000 | C* (0.20 < C ≦ 0.40)

From patent US9730937B2, “RAF kinase modulator compounds and methods of use thereof” (AMBIT BIOSCIENCES CORPORATION, priority 2008, dated 2017)
